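All cell lines were grown in 96-well plates and treated with compound for 48 hours. Definition used: TGI = concentration required for complete inhibition of growth.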 Where a SMILES comes first, the peptide text is derived from it. [ ]: non-standard residue; d: D form. The star is where a group is joined. ξ: configuration not given here. Cbz = O=C(OCc1ccccc1)*; ξK = NCCCCC(N)C(=O)O
What was measured:
Assay in all cases: DTP human tumour cell line panel, 48 h
UACC-62 melanoma = system: UACC-62 melanoma
M14 melanoma = system: M14 melanoma
SF-539 CNS = system: SF-539 CNS
SNB-19 CNS = system: SNB-19 CNS
MDA-MB-231 breast = system: MDA-MB-231 breast
HS 578T breast = system: HS 578T breast
UO-31 renal = system: UO-31 renal
NCI-H522 lung = system: NCI-H522 lung
NCI-H23 lung = system: NCI-H23 lung
IGROV1 ovarian = system: IGROV1 ovarian
EKVX NSCLC = system: EKVX NSCLC
SK-MEL-28 melanoma = system: SK-MEL-28 melanoma
NCI-H460 lung = system: NCI-H460 lung
RXF 393 renal = system: RXF 393 renal
RPMI-8226 leukemia = system: RPMI-8226 leukemia
ACHN renal = system: ACHN renal
LOX IMVI melanoma = system: LOX IMVI melanoma
NCI-H226 lung = system: NCI-H226 lung
MOLT-4 leukemia = system: MOLT-4 leukemia
U251 CNS = system: U251 CNS
KM12 colon = system: KM12 colon
SK-MEL-2 melanoma = system: SK-MEL-2 melanoma
HT29 colon = system: HT29 colon
MCF7 breast = system: MCF7 breast
COLO 205 colon = system: COLO 205 colon
MALME-3M melanoma = system: MALME-3M melanoma
T-47D breast = system: T-47D breast
HOP-62 NSCLC = system: HOP-62 NSCLC
DU-145 prostate = system: DU-145 prostate
SW-620 colon = system: SW-620 colon
SK-MEL-5 melanoma = system: SK-MEL-5 melanoma
MDA-N = system: MDA-N
OVCAR-5 ovarian = system: OVCAR-5 ovarian
SF-268 CNS = system: SF-268 CNS
A549 NSCLC = system: A549 NSCLC
SN12C renal = system: SN12C renal
SF-295 CNS = system: SF-295 CNS
HCT-15 colon = system: HCT-15 colon
OVCAR-4 ovarian = system: OVCAR-4 ovarian
HCC-2998 colon = system: HCC-2998 colon
SK-OV-3 ovarian = system: SK-OV-3 ovarian
SNB-75 CNS = system: SNB-75 CNS
786-0 renal = system: 786-0 renal
UACC-257 melanoma = system: UACC-257 melanoma
K-562 leukemia = system: K-562 leukemia
OVCAR-8 ovarian = system: OVCAR-8 ovarian
CCRF-CEM leukemia = system: CCRF-CEM leukemia
NCI/ADR-RES ovarian = system: NCI/ADR-RES ovarian
CAKI-1 renal = system: CAKI-1 renal
MDA-MB-435 = system: MDA-MB-435
HOP-92 NSCLC = system: HOP-92 NSCLC
HCT-116 colon = system: HCT-116 colon
OVCAR-3 ovarian = system: OVCAR-3 ovarian
A498 renal = system: A498 renal
SR leukemia = system: SR leukemia
PC-3 prostate = system: PC-3 prostate

Measured: TGI

NCCCCC(NC(=O)OCc1ccccc1)C(=O)NCC(N)=O (stereo unspecified) (Cbz-[ξK]-Gly-NH2)
> 100 µM: all assays above
